# Laboratory results reported in ChEMBL document CHEMBL1126166, “Synthesis of the -phosphonic acid analogue of kainic acid” (Bioorg Med Chem Lett, 1992).
# Molecular target: Glutamate receptor ionotropic, kainate (Rattus norvegicus) (UniProt P22756+Q01812+P42260+P42264+Q63273)
# Assay: Compound was evaluated for the inhibition of kainate receptor binding at 10 uM
# Format: protein-complex assay
structure (smiles),measurement,value
C=C(C)[C@H]1CN[C@H](C(=O)O)[C@H]1CP(=O)(O)O,inhibition,77%
